This passage reports IC50 results from patent US8889708B2 (Boehringer Ingelheim International GmbH, priority 2013, dated 2014).

The IC50 is the concentration that gives 50% inhibition.

The target in one experiment is recombinant human DPPI (Homo sapiens (Human), UniProt P53634). Description: Inhibition of Human DPPI (Cathepsin C). To be noted: substrate Gly-Arg-AMC, 30 min room temperature. The class given is biochemical. The source says: Inhibition of Human DPPI (Cathepsin C)
Materials: Microtiterplates (Optiplate-384 F) were purchased from PerkinElmer (Prod. No. 6007270). The substrate Gly-Arg-AMC was from Biotrend (Prod.-No. 808756 Custom peptide). Bovine serum albumin (BSA; Prod. No. A3059) and Dithiothreitol (DTT; Prod. No D0632) were from Sigma. TagZyme buffer was from Riedel-de-Haen (Prod.-No. 04269), NaCl was from Merck (Prod.-No. 1.06404.1000) and morpholinoethane sulfonic acid (MES), was from Serva (Prod.-No. 29834). The DPP1 inhibitor Gly-Phe-DMK was purchased from MP Biomedicals (Prod.-No. 03DK00625). The recombinant human DPPI was purchased from Prozymex. All other materials were of highest grade commercially available.
The following buffers were used: MES buffer: 25 mM MES, 50 mM NaCl, 5 mM DTT, adjusted to pH 6.0, containing 0.1% BSA; TAGZyme Buffer: 20 mM NaH2PO4, 150 mM NaCl adjusted to pH 6.0 with HCl
The recombinant human DPPI was diluted in TAGZyme buffer to 1 U/ml (38.1 μg/ml, respectively), and then activated by mixing in a 1:2 ratio with a Cysteamine aqueous solution (2 mM) and incubating for 5 min at room temperature.
Five uL test compound (final concentration 0.1 nM to 100 μM) in aqua bidest (containing 4% DMSO, final DMSO concentration 1%) were mixed with 10 μL of DPPI in MES buffer (final concentration 0.0125 ng/μL) and incubated for 10 min. Then, 5 μL of substrate in MES buffer (final concentration 50 μM) were added. The microtiter plates were then incubated at room temperature for 30 min. Then, the reaction was stopped by adding 10 μL of Gly-Phe-DMK in MES-buffer (final concentration 1 μM). The fluorescence in the wells was determined using a Molecular Devices SpectraMax M5 Fluorescence Reader (Ex 360 nm, Em 460 nm) or an Envision Fluorescence Reader (Ex 355 nm, Em 460 nm).
Each assay microtiter plate contained wells with vehicle controls (1% DMSO in bidest+0.075% BSA) as reference for non-inhibited enzyme activity (100% Ctl; high values) and wells with inhibitor (Gly-Phe-DMK, in bidest+1% DMSO+0.075% BSA, final concentration 1 μM) as controls for background fluorescence (0% Ctl; low values).
The analysis of the data was performed by calculating the percentage of fluorescence in the presence of test compound in comparison to the fluorescence of the vehicle control after subtracting the background fluorescence using the following formula: (RFU(sample)−RFU(background))*100/(RFU(control)−RFU(background))
Data from these calculations were used to generate IC50 values for inhibition of DPPI, respectively.

Experiment [1] concerns the target recombinant human Cathepsin K (Homo sapiens (Human), UniProt P43235). As to the kind of experiment: Inhibition of Human Cathepsin K. The class given is biochemical. To be noted: substrate Z-Gly-Pro-Arg-AMC, 60 min room temperature. From the text: Inhibition of Human Cathepsin K Materials: Microtiterplates (Optiplate-384 F were purchased from PerkinElmer (Prod. No. 6007270). The substrate Z-Gly-Pro-Arg-AMC was from Biomol (Prod.-No. P-142). L-Cysteine (Prod. No. 168149) was from Sigma. Sodium actetate was from Merck (Prod.-No. 6268.0250), EDTA was from Fluka (Prod.-No. 03680). The inhibitor E-64 was purchased from Sigma (Prod.-No. E3132). The recombinant human Cathepsin K proenzyme was purchased from Biomol (Prod. No. SE-367). All other materials were of highest grade commercially available.
The following buffers were used: Activation buffer: 32.5 mM sodium acetate, adjusted to pH 3.5 with HCl; Assay buffer: 150 mM sodium acetate, 4 mM EDTA, 20 mM L-Cysteine, adjusted to pH 5.5 with HCl,
To activate the proenzyme, 5 μl procathepsin K were mixed with 1 ul activation buffer, and incubated at room temperature for 30 min.
5 μL test compound (final concentration 0.1 nM to 100 μM) in aqua bidest (containing 4% DMSO, final DMSO concentration 1%) were mixed with 10 uL of Cathepsin K in assay buffer (final concentration 2 ng/μL) and incubated for 10 min. Then 5 μL of substrate in assay buffer (final concentration 12.5 μM) were added. The plates were then incubated at room temperature for 60 min. Then, the reaction was stopped by adding 10 μL of E64 in assay buffer (final concentration 1 μM). The fluorescence in the wells was determined using a Molecular Devices SpectraMax M5 Fluorescence Reader (Ex 360 nm, Em 460 nm).
Each assay microtiter plate contains wells with vehicle controls (1% DMSO in bidest) as reference for non-inhibited enzyme activity (100% Ctl; high values) and wells with inhibitor (E64 in bidest+1% DMSO, final concentration 1 μM) as controls for background fluorescence (0% Ctl; low values). The analysis of the data was performed by calculating the percentage of fluorescence in the presence of test compound in comparison to the fluorescence of the vehicle control after subtracting the background fluorescence: (RFU(sample)−RFU(background))*100/(RFU(control)−RFU(background))
Data from these calculations were used to generate IC50 values for inhibition of Cathepsin K, respectively.

Chain of recombinant human DPPI (P53634 231-394): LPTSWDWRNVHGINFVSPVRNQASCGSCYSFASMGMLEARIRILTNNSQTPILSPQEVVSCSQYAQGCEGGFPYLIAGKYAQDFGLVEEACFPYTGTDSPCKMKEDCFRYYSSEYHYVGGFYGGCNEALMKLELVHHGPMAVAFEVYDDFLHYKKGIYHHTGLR
Chain of recombinant human DPPI (P53634 395-463): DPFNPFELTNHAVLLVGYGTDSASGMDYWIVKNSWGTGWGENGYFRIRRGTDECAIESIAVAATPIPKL
Chain of recombinant human DPPI (P53634 25-134): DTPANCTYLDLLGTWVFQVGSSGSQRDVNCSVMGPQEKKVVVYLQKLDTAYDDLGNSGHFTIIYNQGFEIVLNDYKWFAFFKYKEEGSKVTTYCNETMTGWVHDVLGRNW
Chain of recombinant human Cathepsin K (P43235 115-329): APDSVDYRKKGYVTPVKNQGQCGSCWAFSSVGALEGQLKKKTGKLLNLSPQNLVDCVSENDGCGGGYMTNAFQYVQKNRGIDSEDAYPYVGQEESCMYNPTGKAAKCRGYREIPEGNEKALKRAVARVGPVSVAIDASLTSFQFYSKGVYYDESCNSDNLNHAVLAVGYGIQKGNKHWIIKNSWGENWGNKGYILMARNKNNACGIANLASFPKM

On to `CN1C(=O)Cc2ccc(-c3ccc(C[C@@H](C#N)NC(=O)[C@@]45CCO[C@@H](CN4)C5)cc3)cc21` [Example 5], for which the figures for the IC50 (on recombinant human DPPI; in experiment [1]) were 50.3 nM and greater than 30000 nM, respectively.
